We go through six molecules from US20260184750A1, “CONJUGATE COMPRISING PEPTIDE OF NOVEL SEQUENCE AND GLYCYRRHIZIN, AND PHARMACEUTICAL COMPOSITION FOR PREVENTING OR TREATING OBESITY COMPRISING SAME” (IUCF-HYU (INDUSTRY-UNIVERSITY COOPERATION FOUNDATION …, priority 2022, published 2026).

Where two headings read alike, the source gives them in different places. No end group written: not given here.

One data set concerns ABCA1. The experiment in a line: ABCA1 cell membrane expression in adipocytes treated with LXR inhibitor GSK2033. In kind it is cell-based. The settings on record: adipocytes treated with GL derivatives. The protocol:
It was confirmed through fluorescence images whether the cell membrane expression level of ABCA1 by GL derivatives is reduced in adipocytes by GSK2033, an LXR inhibitor. […] Specifically, 4×10^4 adipocytes were seeded in a 24-well plate and treated with each group (control, GL, PEG, AHP, GL-PEG, and GL-PEG-AHP) for 24 hours on day 14 of adipocyte differentiation. The cells were fixed using 4% PFA. After washing with PBS, the cells were incubated with 10% goat serum and 0.02% Tween-20 for 30 minutes at room temperature. The cells were treated with the ABCA1 antibody (Host: rabbit, 1:300) in PBST at room temperature for two hours. After washing with PBST, the cells were treated with an FITC-labeled secondary antibody (goat-anti-rabbit, 1:500) at room temperature for one hour. After washing with PBS, the cells were treated with DAPI for one minute at room temperature, and then fluorescence images were obtained.

Data set [1] deals with adipocytes (mature 3T3-L1). The experiment in a line: FACS targeting ability of FITC-labeled peptides in adipocytes. It is filed as cell-based. The settings on record: 37° C.; for targeting ability (FACS): adipocytes (mature 3T3-L1), 1 μM FITC-labeled peptide, 30 minutes. The method, then: To conduct cell experiments in adipocytes, preadipocytes were differentiated into adipocytes. Specifically, 3T3-L1 preadipocytes were first seeded in a well plate of a size suitable for the experimental purpose, and then cultured to 80% to 90% confluence. Thereafter, the cells were treated with an adipocyte differentiation induction reagent (insulin 10 μg/ml, dexamethasone 0.4 μg/ml, 3-isobutyl-1-methylxanthine 111 μg/ml) for three days. After washing the adipocyte differentiation induction reagent with phosphate-buffered saline (PBS), the cells were treated with Dulbecco's modified eagle medium (DMEM) containing insulin (10 μg/ml) every two days, and differentiation was induced for up to 14 days to generate adipocytes. Thereafter, on day 14 of the adipocyte differentiation induction, the cells were fixed with 4% paraformaldehyde and then treated with the Oil red O staining solution for two hours. In addition, the staining solution accumulated inside the cells was eluted with isopropanol, and a microplate reader was used to verify whether fatty acids were accumulated inside the adipocytes at a wavelength of 510 nm to finally confirm the differentiation.
The targeting effect of the above-described candidate peptides was quantitatively verified in actual adipocytes and preadipocytes. Specifically, differentiated 3T3-L1 preadipocytes were treated at 37° C. for 30 minutes with 1 μM of the final FITC-labeled candidate peptides dissolved in DMEM.
After washing with PBS, cells were detached from the well plate using a trypsin-ethlyenediaminetetraacetic acid (EDTA) (0.5%) solution and centrifuged at 1100 rpm for three minutes to obtain sedimented cells. […]
The finally selected candidate peptide (adipose tissue homing peptide: AHP) (SEQ ID NO: 14: KGRRAKD) was quantitatively compared with another adipose tissue targeting sequence (adipose targeting sequence: ATS) (SEQ ID NO: 22: KGGRAKD) in adipocytes. […]

The test system of data set [2] is adipocytes (mature 3T3-L1). Nature of the data set: Confocal fluorescence imaging of peptide binding to adipocyte outer membrane. In kind it is cell-based. Particulars: 1 μM FITC-labeled peptide, 30 minutes, 37° C. The method, then:
The binding of the candidate peptides to the adipocyte outer membrane was confirmed through fluorescence imaging. Specifically, differentiated 3T3-L1 preadipocytes were treated with 1 μM of the finally selected FITC-labeled candidate peptides in Table 2 dissolved in DMEM for 30 minutes at 37° C. After washing with PBS, cell nuclei were stained using 4′6,-diamidino-2-phenylindole (DAPI). Fluorescence images were taken using a confocal microscope (green fluorescence (FITC)=488 nm, blue fluorescence (DAPI)=405 nm).

Data set [3] is described as follows: Pharmacokinetics: blood residual concentration after intraperitoneal injection. In kind it is in vivo, C57BL/6J. The settings on record: 13.5 mg/kg intraperitoneal. The protocol:
The pharmacokinetic indices were calculated by measuring the blood residual concentrations of GL derivatives. Specifically, GL and GL-PEG-AHP were injected intraperitoneally in an amount of 13.5 mg/kg into animals (C57BL/6J, 6 weeks old, 5 per cage). At each time point (0, 20, 30, 120, 240, and 480 minutes) following the intraperitoneal injection, the animals were sacrificed, and 300 μl of blood samples were obtained through the abdominal vein. The obtained blood samples were placed in EDTA tubes and centrifuged at 824×g for 30 minutes at 4° C. 50 μl of the supernatant was mixed with 100 μl of methanol, and the resulting mixture was vortexed for 10 minutes. Thereafter, centrifugation was performed again at 10,000×g for 10 minutes. 100 μl of the supernatant was mixed with 900 μl of the mobile phase, and the resulting mixture was filtered through a 0.45 μm syringe filter, and HPLC was performed (HPLC column: C8 column; mobile phase=methanol:acetonitrile:water:acetic acid=55:23.7:19.2:0.68; flow rate: 1 ml/min; injection volume: 20 μl) to measure the blood residual concentration of the drug over time. Detection was performed through UV at 245 nm.

Data set [4] deals with obese adipocytes (FFA-treated mature 3T3-L1 cells). Nature of the data set: Anti-hypertrophic effect in obese adipocytes (Oil Red O). In kind it is cell-based. The method, then: To induce obesity in adipocytes at the cell experiment level, cells were treated with saturated fatty acids, and the process of inducing obese adipocytes and performing the experiment at the cell experiment level are shown in FIG. 16. Specifically, a saturated fatty acid (free fatty-acid) (FFA, palmitic acid) was dissolved in a 2% w/v bovine serum albumin (BSA) and 0.5% ethanol DMEM solution to a concentration of 500 μM. After treating with FFA for three days, the cells were washed, subjected to an Oil Red O staining solution process, and then the amount of accumulated fatty acids was measured through the absorbance at 510 nm. The results are shown in FIG. 17, and it was confirmed even through qualitative observation that the size of single fat droplets was very different. […]
The anti-hypertrophy effect of GL derivatives in obesity-induced adipocytes according to the concentration was confirmed at the cell experiment level. […] The amount of fatty acids accumulated inside the cells was measured through the Oil Red O staining process on day 18 of differentiation. […]
It was confirmed whether the anti-hypertrophic effect according to the expected mechanism of GL derivatives differed depending on the fatty acid treatment method. […] On day 18 of differentiation, the amount of fatty acids accumulated inside the cells was measured through the Oil Red O staining process.

The target of data set [5] is T1, prohibitin (PHB) on the surface of adipocytes (mature 3T3-L1) (UniProt P67778 2-272, limits assumed).
T1 construct: whole, on cells
T1 sequence (looked up): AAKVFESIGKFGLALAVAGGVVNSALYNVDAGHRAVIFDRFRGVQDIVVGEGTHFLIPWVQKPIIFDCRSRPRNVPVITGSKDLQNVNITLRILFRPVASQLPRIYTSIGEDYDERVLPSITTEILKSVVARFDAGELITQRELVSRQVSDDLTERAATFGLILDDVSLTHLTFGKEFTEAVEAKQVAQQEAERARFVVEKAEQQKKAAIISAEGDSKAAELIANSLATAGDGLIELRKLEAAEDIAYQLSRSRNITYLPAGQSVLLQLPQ
The experiment in a line: FACS of FITC-labeled peptide on mature 3T3-L1 adipocytes, 30 min at 37 °C.

Take `Cc1cc(C)c(S(=O)(=O)N(Cc2ccc(-c3cccc(S(C)(=O)=O)c3)cc2)Cc2ccc(C(F)(F)F)o2)c(C)c1` [GSK2033]: the “expression of ABCA1 in GL derivative groups by GSK2033 treatment” value with ABCA1 is reported as “suppressed”.
For “GRRAK: 5mer candidate peptide, SEQ ID NO: 6”, in data set [1], the “targeting ability (FACS)” value is “did not have a significant targeting ability”.
For the molecule “7mer 001: adipose tissue homing peptide, SEQ ID NO: 14: KGRRAKD; conjugated form SEQ ID NO: 1: GKGRRAKDC”, the “adipocyte targeting ability (confocal fluorescence images)” value in data set [2] is “best adipocyte targeting ability”. For the same molecule, the “adipocyte targeting effect compared with ATS (FACS)” value in data set [1] (1 μM FITC-labeled AHP and ATS, 30 min) is reported as “not inferior in efficacy to ATS”. Also, in data set [1], the “targeting ability (FACS)” value is listed as “most effective targeting ability”.
As for `CC1(C)[C@@H](O[C@H]2O[C@H](C(=O)O)[C@@H](O)[C@H](O)[C@H]2O[C@@H]2O[C@H](C(=O)O)[C@@H](O)[C@H](O)[C@H]2O)CC[C@]2(C)[C@H]3C(=O)C=C4[C@@H]5C[C@@](C)(C(=O)O)CC[C@]5(C)CC[C@@]4(C)[C@]3(C)CC[C@@H]12` [GL, glycyrrhizin], in data set [3] (C57BL/6J, mouse, plasma, ip), the AUC(0-t) was 114 µg·h/mL and the half-life is 3.3 h. Further, in data set [3] (C57BL/6J, mouse, plasma, ip, read-out: Cmax), the Cmax was 43800 ng/mL. For the same molecule, in data set [3] (C57BL/6J, mouse, plasma, ip, read-out: Tmax (converted)), the Tmax was 0.333 h.
“GL-PEG-AHP: adipose tissue-targeting glycyrrhizin conjugate: GL amide-bonded to thiol-PEG-amine, disulfide-bonded to AHP (SEQ ID NO: 1: GKGRRAKDC) (also: glycyrrhizin-PEG conjugate, Cys9 disulfide-linked to thiol-PEG-GL)”: in data set [3], the Cmax came out at 75200 ng/mL, the T1/2 turned out to be 3.45 h and the Tmax was found to be 0.333 h. For the same molecule, the “difference in drug efficacy between pretreatment and co-treatment” value in data set [4] (anti-hypertrophic effect, Oil Red O, day 18 of differentiation) is recorded as “greatest efficacy difference”. Besides, the anti-hypertrophic effect result in data set [4] (drug pretreatment, 25, 50, 100, 200, 400 μM, ranking between groups) is “most effective anti-hypertrophic effect”.

B1: 5mer candidate peptide GRRAK, FITC-labeled (peptide)
peptide: GRRAK
modifications: also: FITC-labeled, position not given here
notes: Described as a 'working region'; also called working region GRRAK
As to B1, the binding result in data set [5] is recorded as “no binding (tested: 1 µM)”.
